According to paper PMC8721105, “Novel Trypanocidal Inhibitors that Block Glycosome Biogenesis by Targeting PEX3–PEX19 Interaction” (Frontiers in Cell and Developmental Biology, 2021):
Values joined by “and” are separate entries in the source; they are usually repeats but may differ in a detail not shown here. Identical values can stand only once. “Also recorded” adds a separate entry of the source. Like-named read-outs stand apart in the source and are kept apart here.

Columns and labels:
[1] = molecular target: TbPEX3–TbPEX19 interaction (Trypanosoma brucei brucei, UniProt Q383Q3); test: AlphaScreen TbPEX3–TbPEX19 inhibitor screening and dose response; type: binding
Procedure: The above solutions were prepared in the reaction buffer [0.5% BSA v/v, 0.05% Tween 80 v/v, 0.2 mM DTT, PBS (pH7.4)] on the day of assay, diluting the compounds from 1 mM stocks in DMSO. Compounds were incubated with the proteins for 30 min at room temperature (RT). Five microliters of AlphaScreen Nickel-chelate acceptor beads (cat. no. 6760619C, PerkinElmer®) and AlphaScreen Glutathione donor beads (cat. no. 6765300, PerkinElmer®) were distributed to the mixture consecutively, with a 15-min interval. The complete 25-μl reaction solutions were incubated for 45 min at RT in the dark, and Alpha signals were captured with Cytation 5 plate reader (BioTek®) with the gain value set at 180. Schematic representation of the experiment setup of the high-throughput screening assays was prepared with BioRender.com.
Following initial hit selection, 10 μM of drugs were tested with GST-His (54 nM) and TbPEX19/TbPEX3 (5 nM) in smaller scale, and the level of signal was normalized (in %) and compared.

[2] = system: GST-TbPEX3d44; test: NMR saturation transfer difference (STD) with GST-TbPEX3; type: binding, Trypanosoma brucei; conditions: for STD NMR effect with GST-TbPEX3: 10 μM protein, 300 µM ligand; for Target protein (NMR analysis): protein assigned as target, GST-TbPEX3, TbPEX19-His and GST-His tested
Procedure: (§1) NMR saturation transfer difference (STD) experiments ([Mayer and Meyer, 1999]) were carried out on a Bruker AVIII 600-MHz spectrometer equipped with a cryoprobe and a SampleJet auto sampler. One-dimensional (1D) and STD spectra were acquired at 298 K. Compounds were dissolved in DMSO-d6 to a final concentration of 50 mM. STD experiments with GST-TbPEX3, TbPEX19-His, and GST-His were performed in PBS (pH 7.4), 10% D2O at a protein concentration of 10 μM, and a ligand concentration of 300 µM. Saturation time and interscan delay within STD experiments were set to 2 and 2.5 s, respectively.

[3] = molecular target: T1, GST-His (Schistosoma japonicum, UniProt P08515); test: NMR saturation transfer difference (STD) with GST-His control; type: binding; conditions: 10 μM protein, 300 µM ligand
T1 construct: made in house; host or cells: E. coli BL21(DE3)
Procedure: as §1

[4] = system: T. brucei BSF427; test: T. brucei cell viability, resazurin-based assay; design: species or system Trypanosoma brucei; conditions: BSF427, 3 days of incubation, resazurin, read-out: T. brucei toxicity (EC50)
Procedure: (§2) BSF strain Lister 427 (termed hereafter as BSF427) and cell line 90-13 (stably expressing Tet repressor) were used in this study. BSF cells were grown in HMI-11 medium and maintained in logarithmic phase [below 2 × 10^6 cells/ml as described in [Kalel et al. (2019)]]. Genomically integrated stable transfections were performed with NotI-linearized plasmid constructs (pGN1-TbPEX11), which integrate into the spacer region of the ribosomal RNA repeat locus in the genome of cell line 90-13, and the clones were selected using blasticidin as described previously ([Kalel et al., 2015]). Expression of TbPEX11-GFP was confirmed with fluorescence microscopy following induction tests (data not shown) with a serial dilution of tetracycline, and minimal concentration (5 ng/ml) of tetracycline was used to achieve expression of the protein in more than 80% of the cells.
T. brucei BSF427 and compound dilutions were mixed in 1 : 1 (v/v) ratio to total volume of 200 μl, to reach final concentrations of 2 × 10^3 cells/ml and 0.19–100 μM of inhibitors, in quadruplicates in 96-well plates. Culture medium with no cells was used as negative control and cultures without presence of compounds as positive control representing normal rate of cell growth. Cells were grown at 37°C in an incubator with humidified air containing 5% CO2 for 3 days. Cell viabilities were measured quantitatively using resazurin dye, by adding 25-µl resazurin (0.1 mg/ml in HBSS) to each well, and the mixture incubated for 6 h in the incubator. Fluorescence emission was detected at 570 and 585 nm after excitation at 530 nm, and fluorescence at 570 nm was subtracted from 585 nm. The inhibition curves were fitted with normalized fluorescence signal (in percentage) against concentration of compounds in Log10 scale using GraphPad Prism, and best fit was used for EC50 estimation. Chemical structures were drawn with ChemDraw 20.0.

[5] = system: T. brucei bloodstream form parasites; test: Immunofluorescence microscopy of glycosomal aldolase localization; type: cell-based, Trypanosoma brucei; conditions: 24 h treatment; for Mislocalization (% of No. of cells) of aldolase: cultures with 50% of the growth rate of DMSO control
Procedure: BSF 90-13 cells with genomically integrated PEX11-GFP were induced with 5 ng/ml of tetracycline and cultured overnight to initiate stable expression of PEX11-GFP. BSF427- and PEX11-GFP–expressing cells were treated for 24 h with 100 μM, 50 and 25 μM of each of the inhibitor, and DMSO was used as control. Compound-treated cultures with growth rates of about 50% compared to the DMSO control were harvested and stained for immunofluorescence and statistical analysis. Cells were fixed with 4% paraformaldehyde in PBS containing 250 mM sucrose for 20 min. Fixed cells were immobilized on adhesive slide (StarFrost®) pre-coated with 10% (v/v) of poly-L-lysine (Sigma-Aldrich®) in water after 1-h incubation at RT. Cells were permeabilized with 0.1% (v/v) Triton X-100 in PBS (pH7.4) for 15 min and blocked in buffer D [PBS supplemented with 1% (w/v) BSA and 0.25% (v/v) Tween 20] for 1 h. Anti-TbAldolase primary antibody was used at 1:500 dilution in buffer D for 1.5 h incubation. After five washes in PBS for 30 min, samples were treated with Goat anti-rabbit secondary antibody (1:200, v/v, Alexa Fluor™ 594). Samples were washed, dried, and mounted with Mowiol containing 4′,6-diamidino-2-phenylindole (DAPI). Immuno-stained cells were visualized with Zeiss Elyra microscopy. Pictures of stack 3 (of 5), rotation 1 (of 3), and phase 5 (of 5) were chosen for all control and compound-treated samples.

[6] = ref ChemBridge, cited from earlier work; for Hacc (hydrogen bond acceptor) / Hdon (hydrogen bond donor): provided by the compound library supplier; for LogSw: supplier data
[7] = Cytotoxicity test on HepG2 cells; conditions: human, HepG2 cells, Human cell cytotoxicity (EC50), HepG2, serial dilutions of up to 200 µM
[8] = system: PEX11-GFP–expressing BSF cells; test: Immunofluorescence of PEX11-GFP–expressing BSF cells; type: cell-based, Trypanosoma brucei; conditions: 24 h treatment
Procedure: as §2
BSF 90-13 cells with genomically integrated PEX11-GFP were induced with 5 ng/ml of tetracycline and cultured overnight to initiate stable expression of PEX11-GFP. BSF427- and PEX11-GFP–expressing cells were treated for 24 h with 100 μM, 50 and 25 μM of each of the inhibitor, and DMSO was used as control. Compound-treated cultures with growth rates of about 50% compared to the DMSO control were harvested and stained for immunofluorescence and statistical analysis. […]

[9] = system: BSF427 cells; test: Digitonin fractionation of compound-treated BSF cells; conditions: 24 h treatment; 0.025 μg of digitonin/μg of total protein
Procedure: Pellets were resuspended in 420 μl of homogenization buffer and distributed evenly into four tubes each with 100 μl (4 μg protein). […] The mixture was incubated for 2 min at 37°C, vortexed for 10 s, and centrifuged (16,000 g) at 4°C for 15 min. 100 μl from the supernatant (solubilized fractions) was taken for Western blot analysis. Remaining pellet fractions were washed by adding homogenization buffer up to 125 μl and centrifuged again, supernatants were discarded, and pellets were resuspended in 100 μl for Western blotting.

[10] = system: TbPEX19-His; test: NMR saturation transfer difference (STD) with TbPEX19-His; type: binding, Trypanosoma brucei; conditions: 10 μM protein, 300 µM ligand
Procedure: as §1

[11] = system: HepG2 cells; test: Cytotoxicity test on HepG2 cells; conditions: read-out: Human cell cytotoxicity (EC50); HepG2, serial dilutions of up to 200 µM
[12] = molecular target: Biotin-TbPEX5pep; test: ELISA binding of GST-TbPEX14 and Biotin-TbPEX5pep; design: species or system Trypanosoma brucei; conditions: read-out: KD of GST-TbPEX14 (residue1-84) and Biotin-TbPEX5pep
Procedure: ELISA with TbPEX14–TbPEX5 was used as an independent assay to confirm compound specificity by examining the compound activity on TbPEX14–TbPEX5 interaction. TbPEX14–TbPEX5 assays were performed similarly with following changes. GST-TbPEX14_1-84 was coated, and biotinylated TbPEX5 peptide (Biotin-Aca-Aca-[…]) was used as analyte to a final concentration of 500 nM. Bound PEX5 was detected using streptavidin-conjugated alkaline phosphatase [1:2,000 v/v in PBS, 0.05% v/v Tween 20 (pH 7.4), buffer D, Promega] and p-nitrophenylphosphate (PNPP, Thermo Fisher Scientific) as a substrate, reactions stopped with 3 M NaOH and absorbance read at 405 nm.

Sequence of TbPEX3–TbPEX19 interaction (Q383Q3 entry or part of it, other chains not shown): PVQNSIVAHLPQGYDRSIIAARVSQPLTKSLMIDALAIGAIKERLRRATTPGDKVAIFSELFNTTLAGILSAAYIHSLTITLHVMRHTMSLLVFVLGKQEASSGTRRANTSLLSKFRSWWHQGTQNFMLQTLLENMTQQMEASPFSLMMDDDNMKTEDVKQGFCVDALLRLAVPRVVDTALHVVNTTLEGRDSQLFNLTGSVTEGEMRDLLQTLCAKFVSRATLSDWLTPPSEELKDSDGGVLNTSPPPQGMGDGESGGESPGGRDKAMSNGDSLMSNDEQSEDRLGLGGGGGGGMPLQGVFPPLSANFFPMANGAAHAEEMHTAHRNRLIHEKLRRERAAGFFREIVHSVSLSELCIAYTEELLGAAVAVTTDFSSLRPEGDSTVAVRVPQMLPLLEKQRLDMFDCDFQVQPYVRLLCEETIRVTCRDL
T1 sequence (P08515 whole entry): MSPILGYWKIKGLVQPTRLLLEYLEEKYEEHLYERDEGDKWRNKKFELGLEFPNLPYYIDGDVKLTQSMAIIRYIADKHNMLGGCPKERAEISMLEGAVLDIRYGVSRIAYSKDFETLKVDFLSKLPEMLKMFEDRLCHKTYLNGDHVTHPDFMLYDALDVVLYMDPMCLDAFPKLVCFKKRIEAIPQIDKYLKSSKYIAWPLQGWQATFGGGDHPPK

Molecule	IC50 [1] [µM]	STD NMR effect with GST-TbPEX3 [2]	Target protein (NMR analysis) [2]	STD NMR effect with GST-His control [3]	EC50 [4] [µM]	EC50 ([4]; Trypanosoma brucei, 72 h) [µM]	Aldolase labeling phenotype (in words) [5]	Hacc (hydrogen bond acceptor) [6]	Hdon (hydrogen bond donor) [6]	LogSw [6]	EC50 [7] [µM]	Mislocalization (% of No. of cells) of aldolase [5]	PEX11-GFP and matrix protein localization (in words) [8]	Release of glycosomal matrix proteins (HK, gGAPDH) on digitonin fractionation (in words) [9]	STD NMR effect with TbPEX19-His [10]	EC50 [11] [µM]	Kd [12] [µM]
c1ccc(-c2ncc(CNCCOc3cccc4cccnc34)cn2)nc1 [Compound 1, N-[(2-pyridin-2-ylpyrimidin-5-yl)methyl]-2-(quinolin-8-yloxy)ethanamine]	1	significant STD effects; also recorded: strong STD signal	TbPEX3	not to GST-His; also recorded: not with TbPEX19 or GST	33	32.7	diffused pattern of aldolase labeling	6	1	-2.69	> 200	–	–	–	–	–	–
COCC1CCCN(S(=O)(=O)N2CCCN(Cc3cccc(F)c3)CC2)C1 (stereo not shown) [Compound 2, 1-(3-fluorobenzyl)-4-{[3-(methoxymethyl)piperidin-1-yl]sulfonyl}-1,4-diazepane]	37.5	significant STD effects; also recorded: strong STD signal	TbPEX3	not to GST-His; also recorded: not with TbPEX19 or GST	27	26.9	mislocalization of aldolase to the cytosol	4	0	-1.59	> 200	~21% and 21.2%	partly mislocalized to cytosol	mislocalization of the matrix protein into cytosol	–	–	–
CCn1c2c(c3cc(C(=O)N4CCc5[nH]cnc5C4c4cccnc4)ccc31)CCCC2=O (stereo not shown) [Compound 3, 9-ethyl-6-[(4-pyridin-3-yl-1,4,6,7-tetrahydro-5H-imidazo[4,5-c]pyridin-5-yl)carbonyl]-2,3,4,9-tetrahydro-1H-carbazol-1-one]	14.3	strong line-broadening	–	weak line-broadening	–	38	partial mislocalization of aldolase to the cytosol	4	1	-1.77	84.4	~27% and 27.5%	mislocalization of both PEX11 and matrix proteins	mislocalization of the matrix protein into cytosol	notable STD signal	84	–
Cn1ccnc1CNCCOc1cccc2cccnc12 [Compound 4, N-[(1-methyl-1H-imidazol-2-yl)methyl]-2-(quinolin-8-yloxy)ethanamine]	0.5	significant STD effects; also recorded: strong STD signal	TbPEX3	not to GST-His; also recorded: not with TbPEX19 or GST	71	70.7	patches of stained aldolase	4	1	-1.26	> 200	~14% and 14.3% and ~15%	–	–	–	–	–
GST-TbPEX14: GST-tagged TbPEX14 residues 1-84 (protein, left off: GST, end not stated, kept) MSLLLSGVVDDGKSKPEVEHTHSEREKRVSNAVEFLLDSRVRRTPTSSKVHFLKSKGLSAEEICEAFTKVGQPKTLNEIKRILS	–	–	–	–	–	–	–	–	–	–	–	–	–	–	–	–	0.52 ± 0.13
